Residues, ends and D or L forms follow the SMILES beside them. *: point of attachment. Cbz = O=C(OCc1ccccc1)*; Boc = CC(C)(C)OC(=O)*; OBn = c1ccc(CO*)cc1
First: CC(C)=CCC(C)(C)C(=O)/C=C/[C@@H]1[C@H]2CC(=O)O[C@H]2C[C@H]1OC(=O)c1ccccc1
Second: CCN(Cc1ccc(Cl)nc1)C(=C[N+](=O)[O-])N(C)C(=O)OCOC(=O)c1ccccc1
The melting point of the first is higher: 98 °C for the first, 62 to 63 °C for the second.

First: O=C(N[C@H](Cc1ccc(C(F)(F)F)cc1)[C@@H](O)c1ccc(F)cc1)C1CCCCC1 (racemic)
Second: O=C(NCC1(c2ccccc2)CCCCC1)Nc1cccc(C(F)(F)F)c1
The melting point of the first is higher: 203 to 204 °C for the first, 147 to 151 °C for the second.

Compared with `O=[N+]([O-])c1cc(Cl)cc(C(O)c2cc(Cl)cc([N+](=O)[O-])c2O)c1O`, `Cc1oc2cc(O)cc(O)c2c(=O)c1-c1ccc(F)cc1` is higher in melting point: 180 °C for the first, 222 to 223 °C for the second.

Compared with `CCc1nc2cc([N+](=O)[O-])ccc2o1`, `CC(C)(Cc1ccccc1)Oc1ccc([N+](=O)[O-])cc1` is lower in melting point: 88 to 90 °C for the first, 78 to 79 °C for the second.

Compared with `O=C(c1ccc(Cl)cc1)c1ccc(Cl)[nH]1`, `O=C(c1ccc(Cl)cc1)C(O)(Cn1cncn1)C(Cl)(Cl)Cl` (stereo not given) is lower in melting point: 210 to 211 °C for the first, 173 to 174 °C for the second.

First: CC(C)(C)OC(=O)CN1C(=O)[C@@H](NC(=O)OCc2ccccc2)[C@H]1CCc1ccco1
Second: CSCCC(NC(=O)OC(C)(C)C)C(=O)NC(C)C(=O)NC(C(=O)NC(CCCCNC(=O)OCc1ccccc1)C(=O)OCc1ccccc1)C(C)C (stereo not given) (Boc-MAVK(Cbz)-OBn; configuration not given here)
The melting point of the first is lower: 82 to 84 °C for the first, 169 to 171 °C for the second.

First: C=CCN1C2CCC3C1CCC2N3C(c1ccc(C(=O)N2CCCC2)cc1)c1cccc(O)c1 (stereo not given)
Second: O=C1CC(c2cccc(O)c2)=Nc2ccc(N3CCCC3)cc21
The melting point of the first is lower: 140 to 142 °C for the first, 364 to 367 °C for the second.

First: Nc1nc2c(c(=O)[nH]1)n(Cc1ccccc1)c(=O)n2C1OC(CO)C(O)C1O (stereo not given)
Second: O=c1[nH]c2ccccc2cc1CN1CC=C(Cc2ccccc2)CC1
The melting point of the first is higher: 175 °C for the first, 155 to 158 °C for the second.

Compared with `CCOC(=O)C(C)(C)c1ccc2c(c1)Nc1ccccc1S2`, `CCOC(=O)c1cc(Cl)c2cccc(OC)c2n1` is higher in melting point: 96 to 99 °C for the first, 131 to 132 °C for the second.

Compared with `O=S(=O)(N=C(O)c1ccc(OCCn2ccnc2)cc1)c1ccccc1`, `COc1ccc(CC(=O)c2ccc(OCc3ccccc3)cc2)cc1` is lower in melting point: 250 to 252 °C for the first, 147 to 148 °C for the second.

Compared with `COc1ccc(O)c(C2C(=O)N(Cc3ccc(C(F)(F)F)o3)c3cccc(Cl)c32)n1` (stereo not given), `CCCc1nn(-c2ccc(C(F)(F)F)cn2)cc1CCCOc1c(F)cccc1CC(=O)O` is lower in melting point: 151 to 152 °C for the first, 105 to 106 °C for the second.

First: Oc1ccc2c(c1)CCCC(c1ccccc1)=C2c1ccc(OCCCCCSCc2cccs2)cc1
Second: Cn1c(-c2ccc(-c3ccncc3)cc2)cnc1[C@H](Cc1ccccn1)N(C=O)c1cc2cc(Cl)ccc2o1
The melting point of the first is higher: 178 °C for the first, 135 to 140 °C for the second.

Compared with `c1csc(-c2cc(-c3cccs3)ncn2)c1`, `O=C(O)c1cnc2cccc(O)c2c1` is higher in melting point: 146 °C for the first, > 260 °C for the second.

First: Cc1cccc(-c2nc3ccc(OCC(C)N(C)C)cc3n2Cc2ccccc2)c1 (stereo not given)
Second: CC(N=c1[nH]c(-c2ccccc2)c(-c2ccnc(Nc3ccccc3)n2)s1)N(C)C (stereo not given)
The melting point of the first is lower: 74 °C for the first, 196 to 197 °C for the second.

First: COc1ccc(-c2cc(C(=O)O)c(=O)n(CC3CCCC3)n2)cc1F
Second: CC(=O)c1c[nH]c2nccc(OCC3CCCCC3)c12
The melting point of the first is lower: 159 to 161 °C for the first, > 210 °C for the second.

First: COCc1nc(N)nc(N)c1-c1ccc(Cl)cc1Cl
Second: COc1ccc(CCNC(=O)CNc2cc(Cl)ccc2C(N)=O)cc1OC
The melting point of the first is higher: 183 to 185 °C for the first, 168 °C for the second.

Compared with `COC(=O)C1Cc2c([nH]c3ccccc23)CN1` (stereo not given), `Cc1ccc(Cl)c2c1[nH]c1c(C(=O)O)cccc12` is higher in melting point: 164 to 165 °C for the first, 303 °C for the second.

Compared with `CCOC(=O)c1c2n(c3c(Cl)c(N4CCC(N(C)C)C4)c(F)cc3c1=O)C(C)S2` (stereo not given), `CCOC(=O)c1sc2nc(CBr)c(CC)c(=O)n2c1C` is higher in melting point: 131 to 133 °C for the first, 146 to 148 °C for the second.

Compared with `CCSc1ccc(SCC)c(C#N)n1`, `CCCCC(CC)c1nc2cc(Cl)c(C#N)c(C)n2n1` (stereo not given) is higher in melting point: 63 to 64 °C for the first, 95 to 96 °C for the second.

First: CC(NC(=O)Cc1cc(F)cc(F)c1)C(=O)NC1C(=O)NC(c2ccccn2)c2ccccc21 (stereo not given)
Second: CC(c1ccccc1)c1n[nH]c2c1c(=O)n(-c1ccccc1)c1ncccc21 (stereo not given)
The melting point of the first is lower: 100 °C for the first, 267 to 268 °C for the second.

Compared with `NCC(CC(=O)O)C1CCCC1` (stereo not given), `O=C(Nc1ccnc(Cl)c1)NC1CCCC1` is lower in melting point: 178 to 180 °C for the first, 119 to 121 °C for the second.

First: CCCc1ccc(NC(C)=O)cn1
Second: CCCCC(=O)Nc1c(N)ccnc1Cl
The melting point of the first is lower: 122 to 124 °C for the first, 163 °C for the second.

First: COCCOc1cc2ncc(C#N)c(Cl)c2cc1OCc1ccccc1
Second: O=c1c2ccc(Cl)cc2n(Cc2ccccc2)n2cccc12
The melting point of the first is lower: 142 to 145 °C for the first, 163 to 165 °C for the second.

First: CN1C(=O)C(=O)c2cc([N+](=O)[O-])cc(C(F)(F)F)c21
Second: CC1(CN2CCN(N=Cc3ccc(OC(F)(F)F)cc3)CC2)Cn2cc([N+](=O)[O-])nc2O1 (stereo not given)
The melting point of the first is lower: 168 to 169 °C for the first, 189 to 191 °C for the second.

Compared with `COc1nc2ccccc2c2c1ncn2CC(O)CO` (stereo not given), `c1ccc(CCn2cc3c(ncn4nc(-c5ccco5)nc34)n2)cc1` is higher in melting point: 214 to 216 °C for the first, 268 to 270 °C for the second.

First: NC(C=C(CCCCO)CP(=O)(O)O)C(=O)O (stereo not given)
Second: CCCCc1oc2ccc(CO)cc2c1C(=O)c1ccc(O)cc1
The melting point of the first is lower: 152 to 155 °C for the first, 180 to 182 °C for the second.

First: Cc1cc(=O)c(-c2ccc(Cl)c(Cl)c2)c(-c2ccc(S(N)(=O)=O)cc2)o1
Second: Cc1ccc2c(Cl)ccnc2c1NC(=O)c1c(Cl)cccc1Cl
The melting point of the first is lower: 128 °C for the first, 202 to 205 °C for the second.

Compared with `CN(C(=O)c1ccccc1N(CC(=O)N1CCCC(C)(C)C1)C(=O)CN1C(=O)c2ccccc2C1=O)c1ccccc1`, `O=C1CCN(CC=Cc2ccccc2)CC1C(c1ccccc1)c1ccccc1` (stereo not given) is lower in melting point: 180 °C for the first, 114 to 115 °C for the second.

First: COc1ccc(C=Cc2cc(F)c(OC)c(OC)c2)cc1O
Second: CC(C)(C)OC(=O)Nc1sc(-c2cncc(F)c2)nc1I
The melting point of the first is lower: 86 to 87 °C for the first, 148 to 149 °C for the second.

First: CC(=O)OCC(=O)C1=CCC2C3CCC4=CC(=O)CCC4(C)C3CCC12C (stereo not given)
Second: CCOC(=O)N(C)CCCC1c2cccc3c2N(CC3)c2ccccc2N1C(C)=O (stereo not given)
The melting point of the first is higher: 146 to 148 °C for the first, 125 to 128 °C for the second.

First: Cc1ccc(N2C(=O)C(O)=C(C(=O)c3ccc(N4CCOCC4)cc3)C2c2ccc(OC(F)(F)F)cc2)nn1 (stereo not given)
Second: CN(c1cc(OC(F)(F)F)cc2cc(C(=O)NCCSC(c3ccccc3)(c3ccccc3)c3ccccc3)[nH]c12)S(=O)(=O)c1cccs1
The melting point of the first is higher: 234 °C for the first, 222 to 223 °C for the second.

First: O=C(CCl)CCCCc1ccc(CCCCC(=O)CCl)cc1
Second: O=C(Nc1c[nH]nc1C(=O)NCCC(F)(F)F)c1ccccn1
The melting point of the first is lower: 86 to 87 °C for the first, 241 to 243 °C for the second.

First: CN(C)n1c(=O)c2ccccc2n(C)c1=O
Second: CCCN(CCC)CCCn1cc(Br)c2c3c(c(-c4ccccc4Cl)cc21)C(=O)NC3=O
The melting point of the first is lower: 154 °C for the first, 173 to 175 °C for the second.

First: CC1OC2c3cc(F)ccc3N3CCC2(CC3)O1 (stereo not given)
Second: O=c1c(Cl)c(SCc2ccc(Cl)cc2)cnn1-c1ccccc1
The melting point of the first is lower: 103 to 107 °C for the first, 154 to 155 °C for the second.

Compared with `CCC1c2ncn(CC)c2CCN1C(=S)NC(C)C` (stereo not given), `O=C(c1ccc([N+](=O)[O-])[nH]1)C(Cl)(Cl)Cl` is lower in melting point: 196 °C for the first, 160 to 163 °C for the second.
